# Experimental data as given in the Kinase Knowledgebase extract (Sharma et al. 2016).
# Biological target: EGFR (human) (UniProt P00533)
# Conditions: a431
# Chain of EGFR (human) (P00533 whole entry, looked up): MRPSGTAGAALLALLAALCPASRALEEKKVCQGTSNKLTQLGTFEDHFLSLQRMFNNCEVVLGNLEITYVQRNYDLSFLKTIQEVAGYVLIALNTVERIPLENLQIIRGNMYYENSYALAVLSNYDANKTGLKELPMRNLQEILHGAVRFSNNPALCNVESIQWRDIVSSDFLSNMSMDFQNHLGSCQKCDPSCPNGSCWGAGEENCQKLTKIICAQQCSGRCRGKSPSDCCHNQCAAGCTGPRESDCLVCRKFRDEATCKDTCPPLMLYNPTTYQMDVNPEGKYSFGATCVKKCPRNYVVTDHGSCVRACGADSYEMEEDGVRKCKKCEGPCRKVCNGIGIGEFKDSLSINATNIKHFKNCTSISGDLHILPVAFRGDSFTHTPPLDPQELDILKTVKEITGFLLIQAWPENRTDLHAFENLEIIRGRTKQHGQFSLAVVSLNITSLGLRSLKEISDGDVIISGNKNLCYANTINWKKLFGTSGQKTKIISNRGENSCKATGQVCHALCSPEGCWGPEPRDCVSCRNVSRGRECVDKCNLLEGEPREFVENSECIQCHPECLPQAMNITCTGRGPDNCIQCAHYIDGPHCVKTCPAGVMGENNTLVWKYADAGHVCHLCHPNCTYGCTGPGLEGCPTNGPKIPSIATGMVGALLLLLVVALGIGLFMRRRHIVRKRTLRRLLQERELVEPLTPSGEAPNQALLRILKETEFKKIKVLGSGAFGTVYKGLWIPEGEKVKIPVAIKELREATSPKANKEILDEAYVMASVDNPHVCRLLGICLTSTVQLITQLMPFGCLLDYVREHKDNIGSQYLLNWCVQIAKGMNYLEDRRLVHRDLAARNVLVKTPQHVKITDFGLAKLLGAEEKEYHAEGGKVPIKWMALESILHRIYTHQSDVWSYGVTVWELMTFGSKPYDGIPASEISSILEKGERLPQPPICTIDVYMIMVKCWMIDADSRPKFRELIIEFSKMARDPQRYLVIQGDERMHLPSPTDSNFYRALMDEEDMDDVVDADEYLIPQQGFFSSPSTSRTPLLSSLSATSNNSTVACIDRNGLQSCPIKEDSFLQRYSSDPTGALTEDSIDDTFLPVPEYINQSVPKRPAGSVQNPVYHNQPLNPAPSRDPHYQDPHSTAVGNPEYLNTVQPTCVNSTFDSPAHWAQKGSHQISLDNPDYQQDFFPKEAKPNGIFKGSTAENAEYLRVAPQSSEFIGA
row,IC50 [µM],Structure (SMILES)
1,> 50,C/C(=C/c1coc2nc(N)nc(N)c12)c1ccc(-c2ccccc2)cc1.C/C(=C\c1coc2nc(N)nc(N)c12)c1ccc(-c2ccccc2)cc1
2,> 50,C/C(=C\c1coc2nc(N)nc(N)c12)c1ccc(Cl)cc1Cl
3,> 50,C/C(=C/c1coc2nc(N)nc(N)c12)c1ccc(Cl)c(Cl)c1.C/C(=C\c1coc2nc(N)nc(N)c12)c1ccc(Cl)c(Cl)c1
4,> 50,C/C(=C/c1coc2nc(N)nc(N)c12)c1ccc2ccccc2c1.C/C(=C\c1coc2nc(N)nc(N)c12)c1ccc2ccccc2c1
5,> 50,C/C(=C/c1coc2nc(N)nc(N)c12)c1ccc(Cl)c(Cl)c1Cl.C/C(=C\c1coc2nc(N)nc(N)c12)c1ccc(Cl)c(Cl)c1Cl
6,> 50,C/C(=C/c1coc2nc(N)nc(N)c12)c1ccc(Cl)cc1.C/C(=C\c1coc2nc(N)nc(N)c12)c1ccc(Cl)cc1
7,> 50,C/C(=C\c1coc2nc(N)nc(N)c12)c1cc(Cl)ccc1Cl

# The next lines start with the compound.
row,Structure (SMILES),IC50 [µM]
1,COc1ccc(OC)c(/C(C)=C/c2coc3nc(N)nc(N)c23)c1,> 50
2,C/C(=C\c1coc2nc(N)nc(N)c12)c1cccc(Cl)c1,> 50
3,C/C(=C/c1coc2nc(N)nc(N)c12)c1cc(Cl)ccc1Cl,> 50
4,COc1ccccc1/C(C)=C/c1coc2nc(N)nc(N)c12,> 50
5,C/C(=C\c1coc2nc(N)nc(N)c12)c1ccc2c(c1)Cc1ccccc1-2,> 50
6,C/C(=C\c1coc2nc(N)nc(N)c12)c1ccc(Cl)c(Cl)c1Cl,> 50
7,COc1cc(/C(C)=C/c2coc3nc(N)nc(N)c23)cc(OC)c1OC.COc1cc(/C(C)=C\c2coc3nc(N)nc(N)c23)cc(OC)c1OC,> 50
